Patent publication US9096499B2, “Compounds for treatment of cell proliferative diseases” (Board of Regents, The University of Texas System, priority 2003, dated 2015)
“Also recorded” adds a separate entry of the source.

Tests used:
U266 MM cells = test: MTT cell growth and survival assay, U266 MM cells; format: cell-based; conditions: 72 hours; for Growth and survival of U266 cells (in words): MTT, FIG. 2C/3C; for IC50: Homo sapiens, U-266, MTT assay
Experimental: (§1) To determine the effect of AG and WP compounds on MM cell growth/survival, MM cells were incubated with the indicated concentration of AG or WP for 72 hours before cell growth and survival were estimated by MTT assay.
(§2) To determine the effect of AG and WP compounds on MM cell growth/survival MM cells were incubated with the indicated concentration of AG or WP for 72 hours before cell growth and survival were estimated by MTT assay.

c-myc [1] = test: c-myc protein expression by immunoblot in MM cells; format: cell-based; design: key to C-Myc: (inhibition = ↓); (no effect) = —; conditions: for C-Myc: c-myc downregulation, immunoblot; for Suppression of c-myc protein expression: 1.56-25 μM WP compounds, CHX 0-30 min at much higher concentrations
Experimental: (§3) To determine the effect of compounds on both Stat3 activation and c-myc protein expression MM-1, OCI-My5 and U266 cells were incubated with 25 μM of AG1801, AG490, WP1038, WP1039, WP1051, or WP1052 for 2 hours before cells were stimulated with 2 ng/ml IL-6 for 10 min. Cell lysates were prepared and immunoblotted for p-Stat3, Stat3, c-myc and actin (as a control).
(§4) To determine the temporal effects and mechanism of action of AG490 and AG1801 action on c-myc expression in MM cells, MM-1 cells were incubated with 0, 25, or 50 μM of AG490 or AG1801 and harvested at 30, 60, or 120 min. Lysates were immunoblotted for c-myc or actin as a protein loading control. […] Semi-quantitative PCR was used to measure changes in c-myc mRNA extracted from cells treated for 30 min with AG1801 at 25 μM. GAPDH PCR was used as a control.
These compounds were evaluated for their signal inhibitory and anti-proliferative/apoptotic properties on multiple myeloma, lymphoma and chronic myelogenous leukemia cell lines. WP1015, WP1034, AG1801, and AG490 were tested across a range of concentrations (6,12, and 25 μM) for their ability to inhibit c-myc expression using immunoblots.
These immunoblots tested a range of concentrations (1.56-25 μM for WP compounds) and used β-actin as a control.

IFN-α signaling = IFN-α signaling (Stat1) immunoblot in MM-1 cells; format: cell-based; conditions: 12 and 25 μM, IFN-α 10 min
Experimental: (§5) To examine the effect of newly synthesized AG and WP compounds on cytokine-mediated Stat activation, multiple myeloma (MM-1) cells were pretreated with AG490 or AG1801 at 2.5, 12, and 25 μM concentrations (for 2 hr) before stimulating cells with IL-6 or IFN-α for 10 min. Stat3 and Stat1 expression and activation were examined by immunoblotting.

MM-1 MM cells = test: MTT cell growth and survival assay, MM-1 MM cells; format: cell-based; conditions: for IC50 / Growth and survival of MM1 cells (in words): 72 hours; for IC50: MTT assay, read-out: IC50 (μM) MM1; for Growth and survival of MM1 cells (in words): MTT, FIG. 2A/3A
Experimental: as §1, §2

[2] = test system: MM colonies from bone marrow aspirates of MM patients; test: Primary MM colony formation in methyl-cellulose; format: cell-based, human; conditions: 12 μM, 7 to 10 days
Experimental: To determine whether these compounds effect primary MM colony growth bone marrow aspirates from MM patients were partially-purified by magnetic bead separation and analyzed for immunoglobulin heavy-chain gene rearrangement by PCR. Cells were grown as colonies in methyl-cellulose in the presence or absence of AG compound as noted for 7 to 10 days. Control colonies were examined for Ig heavy chain gene rearrangement to confirm the clonal nature of the population.

OCI-My5 cells = test: Caspase activation and PARP cleavage in OCI-My5 cells; format: cell-based; conditions: 12.5 and 25 μM
Experimental: To determine whether AG1801 effects caspase activation in MM cells, OCI-My5 cells were treated as described above before cell lysates were examined for casapase activation and PARP cleavage. […] At 12.5 and 25 μM, AG490 was ineffective in caspase activation and PARP clevage in these cells.

OCI MM cells = test: MTT cell growth and survival assay, OCI MM cells; format: cell-based; conditions: 72 hours; for IC50: MTT assay; for Growth and survival of OCI cells (in words): MTT, FIG. 2B/3B
Experimental: as §1, §2

c-myc mRNA = test: Semi-quantitative PCR of c-myc mRNA in MM-1 cells; format: cell-based; conditions: 25 μM, 30 min
Experimental: as §4

Stat3 [3] = test: IL-6 mediated Stat3 activation (p-Stat3 immunoblot) in MM cells; format: cell-based; design: key to P-Stat 3: (inhibition = ↓); (no effect) = —; conditions: for P-Stat 3: Stat3 inhibition, immunoblot
Experimental: as §5
as §3, with “control). Both Stat3 activation and c-myc expression were effected by WP and AG compounds.” for “control).”

c-myc/Stat3 = test: Stat3/c-myc inhibitory activity in MM-1 cells (FIG. 7); format: cell-based
Description: An improved inhibition of c-myc/Stat3 by WP1066, WP1130, and WP1129 was observed (FIG. 7). The compounds were compared with regard to their Stat3/c-myc inhibitory activity in MM-1 cells.

Stat3 [4] = test: IL-6 mediated Stat3 activation immunoblot in LP cells; format: cell-based; conditions: 3-25 μM
Experimental: (§6) Further studies were conducted to determine the dose and time dependent effects of these new compounds on IL-6 mediated Stat3 activation, c-myc protein expression and anti-proliferative of LP and other cell types.

c-myc [5] = test: c-myc protein immunoblot in LP non-Hodgkin lymphoma cells; format: cell-based; conditions: for c-myc expression: 3-25 μM
Experimental: Additional cell types were examined for response to treatment with WP1066.
as §6

[6] = test system: MM-1, Mino, WDT-2, WDT-3, K562, K562-R cell lines; test: Anti-proliferative/apoptotic action on c-myc overexpressing cell lines (FIG. 5); format: cell-based; conditions: FIG. 5, incl. Imatinib-resistant K562-R
Description: The anti-proliferative/apoptotic actions of WP1066 were also examined on cell lines known to overexpress c-myc. […] Thus WP1066 clearly exerts a potent inhibition of cell proliferation and/or survival in multiple cancer cell lines, and WP1066 will be used as a therapeutic.

[7] = test system: human A375 melanoma tumors; test: A375 melanoma tumors in nude mice; format: in vivo, Swiss nude mice; conditions: 40 mg/kg i.p. every other day, 8 injections from day 7, to day 21
Experimental: The results of animal studies of human A375 melanoma tumors growing in nude mice, treated with WP1066 after tumors reached a palpable size, are shown in FIG. 8. The following animal model was used to evaluate the anti-tumor and anti-cancer effects of the compounds: on Day 0, A375 cells were suspended to 20×10^6 cells/ml in RPMI 1640 medium. On day 0, 0.2 ml of this suspension containing A375 cells was injected (s.c.) into female Swiss nude mice 6-7 weeks of age. On Day 7, 40 mg/kg of WP1066 was injected (i.p.) into the above mice in a 0.1 ml suspension of DMSO/PEG300 (50/50) on a qd, every other day schedule for 8 injections. Five mice per experimental group were used, including a vehicle (DMSO/PEG300) control group. Animals received 40 mg/kg WP1066 every other day […] for a total of 8 injections. The control group reached maximum tumor burden at day 21, and for this reason the experiment was stopped.

In the case of `N#C/C(=C\c1ccc([N+](=O)[O-])cc1)C(=O)NCc1ccccc1` [AG 1801], the “Growth and survival of U266 cells (in words)” value (U266 MM cells) is reported as “effective in reducing the growth and survival; also recorded: demonstrated increased potency compared to AG490”, the IC50 (U266 MM cells) is reported as 9 µM and the “c-myc expression, temporal effects” value (c-myc [1]; MM-1 cells, 25 and 50 μM, 30, 60, 120 min) is reported as “rapidly reduced c-myc expression”. The C-Myc (c-myc [1]) was “↓”, the “Effect on IFN-α signaling” value (IFN-α signaling) was “without effecting IFN-α” and the IC50 (MM-1 MM cells) was 7.5 µM. For the same molecule, the “Growth and survival of MM1 cells (in words)” value (MM-1 MM cells) was “effective in reducing the growth and survival; also recorded: demonstrated increased potency compared to AG490”, the “Inhibition of MM colony formation” value [2] was “completely inhibited MM colony formation” and the “Caspase activation (caspase 3 and caspase 8)” value (OCI-My5 cells) was “activated both upstream and downstream caspases”. The PARP cleavage (OCI-My5 cells) was “increased PARP clevage”, the IC50 (OCI MM cells) was 12 µM and the “Growth and survival of OCI cells (in words)” value (OCI MM cells) was “effective in reducing the growth and survival; also recorded: demonstrated increased potency compared to AG490”. For the same molecule, the “c-myc mRNA expression” value (c-myc mRNA) was “minimal effects”, the “Suppression of IL-6 signaling (Stat3 activation)” value (Stat3 [3]; MM-1 cells, 2 hr pretreatment, 12 and 25 μM, IL-6 10 min) was “effective in suppressing IL-6 signaling” and the “P-Stat 3” value (Stat3 [3]) was “↓”.
`C[C@@H]1C[C@@H]([C@H](O)CC2CC(=O)NC(=O)C2)C(=O)[C@@H](C)C1` [CHX, cycloheximide, reference compound] was tested, and the “Suppression of c-myc protein expression” value (c-myc [1]) was “did not result in the rapid reduction of c-myc”.
`CCC[C@H](NC(=O)/C(C#N)=C/c1cccc(Br)n1)c1ccccc1` [WP1130] was tested, and the “IC50 against MM-1 myeloma relative to WP1066” value (MM-1 MM cells; FIG. 6) was “even better than compound WP1066” and the “Inhibition of c-myc/Stat3” value (c-myc/Stat3) was “Strong inhibition”.
In the case of `N#C/C(=C\c1cccc(Br)n1)C(=O)NCc1ccccc1` [WP 1015], the “Inhibition of c-myc protein expression” value (c-myc [1]; 6, 12, 25 μM, AG490 up to 50 μM) is reported as “more active than previously synthesized WP compounds”, the C-Myc (c-myc [1]) is reported as “↓” and the “IL-6 mediated Stat3 activation” value (Stat3 [4]) is reported as “blocked IL-6 mediated Stat3 activation”. For the same molecule, the IC50 (MM-1 MM cells) was 1.9 µM, the “Inhibition of Stat3 phosphorylation” value (Stat3 [3]; MM-1 cells) was “more effective in inhibiting Stat3 phosphorylation” and the c-myc expression (c-myc [5]; LP cells) was “reduced c-myc expression”.
`C[C@@H](NC(=O)/C(C#N)=C/c1ccc([N+](=O)[O-])cc1)c1ccccc1` [WP 1034] was tested, and the “Growth and survival of U266 cells (in words)” value (U266 MM cells) was “effective in reducing the growth and survival; also recorded: demonstrated increased potency compared to AG490”, the IC50 (U266 MM cells) was 4.5 µM and the C-Myc (c-myc [1]) was “↓”. The IC50 (MM-1 MM cells) was 3.5 µM, the “Growth and survival of MM1 cells (in words)” value (MM-1 MM cells) was “effective in reducing the growth and survival; also recorded: demonstrated increased potency compared to AG490” and the IC50 (OCI MM cells) was 6.3 µM. The “Growth and survival of OCI cells (in words)” value (OCI MM cells) was “effective in reducing the growth and survival; also recorded: demonstrated increased potency compared to AG490”.
For `C[C@@H](NC(=O)/C(C#N)=C/c1ccc([N+](=O)[O-])c(O)c1)c1ccccc1` [WP 1038], the IC50 (U266 MM cells) was 11.8 µM, the C-Myc (c-myc [1]) was “↓” and the IC50 (MM-1 MM cells) was 6.2 µM. The IC50 (OCI MM cells) was over 12.5 µM and the “P-Stat 3” value (Stat3 [3]) was “↓”.
`C[C@H](NC(=O)/C(C#N)=C/c1ccc([N+](=O)[O-])cc1)c1ccccc1` [WP 1050] was tested, and the “Growth and survival of U266 cells (in words)” value (U266 MM cells) was “demonstrated increased potency compared to AG490”, the IC50 (U266 MM cells) was 5 µM and the C-Myc (c-myc [1]) was “↓”. For the same molecule, the IC50 (MM-1 MM cells) was 2.1 µM, the “Growth and survival of MM1 cells (in words)” value (MM-1 MM cells) was “demonstrated increased potency compared to AG490” and the IC50 (OCI MM cells) was over 12.5 µM. The “Growth and survival of OCI cells (in words)” value (OCI MM cells) was “demonstrated increased potency compared to AG490”.
`C[C@H](NC(=O)/C(C#N)=C/c1ccc([N+](=O)[O-])c(O)c1)c1ccccc1` [WP 1051] was tested, and the IC50 (U266 MM cells) was 11.1 µM, the C-Myc (c-myc [1]) was “↓” and the IC50 (MM-1 MM cells) was 5.5 µM. For the same molecule, the IC50 (OCI MM cells) was over 12.5 µM and the “P-Stat 3” value (Stat3 [3]) was “↓”.
Work on `C[C@H](NC(=O)/C(C#N)=C/c1ccccn1)c1ccccc1` [WP 1065] yielded an IC50 (MM-1 MM cells) of 3 µM.
`C[C@H](NC(=O)/C(C#N)=C/c1cccc(Br)n1)c1ccccc1` [WP 1066] was tested, and the “Cell proliferation and/or survival in multiple cancer cell lines” value [6] was “dose-dependent anti-tumor effects; also recorded: effective in reducing cell proliferation”, the “Tumor size / tumor volume in vivo” value [7] was “decrease tumor size; also recorded: reduces tumor volume” and the “Suppression of c-myc protein expression” value (c-myc [1]) was “more active in suppressing c-myc protein expression than WP1015”. For the same molecule, the C-Myc (c-myc [1]) was “↓”, the “IL-6 mediated Stat3 activation” value (Stat3 [4]) was “blocked IL-6 mediated Stat3 activation; also recorded: slightly better activity than WP1015” and the IC50 (MM-1 MM cells) was 1.3 µM. The “Inhibition of c-myc/Stat3” value (c-myc/Stat3) was “Strong inhibition”, the c-myc expression (c-myc [5]; LP cells) was “reduced c-myc expression” and the “Downregulation of c-myc protein” value (c-myc [5]; LP cells, 5, 15, 30, 60 min) was “rapid downregulation of c-myc protein”. The “Reduction in c-myc at shortest incubation” value (c-myc [5]; LP cells, 5 min) was “strong reduction”.
`N#C/C(=C\c1cc(O)ccc1[N+](=O)[O-])C(=O)NCc1ccccc1` [WP 1073] gave an IC50 (MM-1 MM cells) of over 2.5 µM.
In the case of `N#C/C(=C\c1cccc([N+](=O)[O-])c1)C(=O)NCc1ccccc1` [WP 1074], the IC50 (MM-1 MM cells) is reported as over 2.5 µM.
With `N#C/C(=C\c1cccnc1)C(=O)NCc1ccccc1` [WP 1075] the IC50 (MM-1 MM cells) was over 2.5 µM.
Molecule `CN(C)c1ccc(/C=C(\C#N)C(=O)NCc2ccccc2)c([N+](=O)[O-])c1` [WP 1076] has an IC50 (MM-1 MM cells) of over 2.5 µM.
`N#C/C(=C\c1ccc(Cl)c([N+](=O)[O-])c1)C(=O)NCc1ccccc1` [WP 1077] was tested, and the IC50 (MM-1 MM cells) was 2.5 µM.
